Toxic doses and inconclusive results are not listed. How the source made its calls: active means survival T/C of 150% or more; inactive means T/C below 125% in these data.
Test system: CD2F1 mice, L1210 leukemia ip, survival T/C
Test: NCI In Vivo Anticancer Drug Screen. Data for tumor model L1210 Leukemia (intraperitoneal) in CD2F1 (CDF1) mice
Details: endpoint: mean survival time, schedule: Q01DX009 (ip), vehicle: saline, higher = longer survival
How it was run: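 Each value reflects a quotient of treated over vehicle control outcomes in mice with a transplanted tumor.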

Measured: T/C

CCN(CC)[P+](c1ccccc1O)(N(CC)CC)N(CC)CC
inactive: dose: 0.39 mg/kg/injection 103 % of control | dose: 0.78 mg/kg/injection 104 % of control | dose: 1.56 mg/kg/injection 109 % of control | dose: 6.25 mg/kg/injection 92 % of control
